Data on 25 molecules can be found in patent US10633389B2, “CARM1 inhibitors and uses thereof” (Epizyme, Inc., priority 2013, dated 2020).

Each structure is given as a SMILES string.

This test has as its system asymmetric di-methyl PABP1 in RKO cells. The test is described as follows: RKO methylation assay, In Cell Western (ICW) for asymmetric di-methyl PABP1. The format is cell-based. The settings on record: Homo sapiens, RKO, Cellular potencies, ICW PABP1me2a. In a few lines: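 RKO cells treated with compound for 48 h at 37 °C, then fixed, permeabilized and immunostained for asymmetric di-methyl PABP1, with DRAQ5 as DNA stain. Infrared 700/800 nm signal ratio normalized to DMSO and 20 μM reference-compound controls; IC50 from triplicate wells.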

As usually defined, the IC50 is the concentration at which inhibition is half-maximal. Read a low IC50 as inhibition by little substance.

`CNCC(O)COc1cccc(-c2nc(NC3CCN(C(=O)OC)CC3)cc(-c3c(C)noc3C)n2)c1` (stereo not shown) [Example 102-1a]: the IC50 was below 5 µM.

The molecule `CNCC(O)COc1cccc(-c2nc(-c3ccnc(C)c3)cc(N(C)C3CCOCC3)n2)c1` (stereo not shown) [Example 40-1] had an IC50 of 5 to 10 µM.

Regarding `CNC[C@@H](O)COc1ccc(Cl)c(-c2nc(-c3c(C)noc3C)c(Cl)c(N3CC4(CCOCC4)C3)n2)c1` [Example 229-3], the half-inhibitory concentration (IC50) was below 5 µM.

On to `CNCC(O)COc1cccc(-c2nc(-c3c(C)noc3C)cc(N3CCN(CC(F)F)[C@H](C)C3)n2)c1` (stereo partly shown) [Example 174-1a], for which the IC50 was below 5 µM.

In turn, `CNCC(O)COc1cc(Cl)cc(-c2nc(Nc3cncnc3)c(C)c(N(C)C3CCOCC3)n2)c1` (stereo not shown) [Example 506-1a] gave an IC50 below 5 µM.

`CNCC(O)COc1cccc(-c2nc(NC3C[C@H]4CC[C@@H](C3)N4C(=O)OC)c(C)c(-c3c(C)noc3C)n2)c1` (stereo partly shown) [Example 242-1a] registered an IC50 below 5 µM.

In turn, `CNCC(O)COc1cccc(-c2nc(-c3ccnc(C(=O)NC)c3)cc(N(C)C3CCOCC3)n2)c1` (stereo not shown) [Example 510-1a] gave an IC50 of 5 to 10 µM.

Turning to `CNCC(O)COc1cccc(-c2nc(NC3CCOC3)c(C)c(-c3cn(C)nn3)n2)c1` (stereo not shown) [Example 335-1a], the half-inhibitory concentration (IC50) fell in the range of 5 to 10 µM.

`CNC[C@@H](O)COc1ccc(F)c(-c2nc(-c3c(C)noc3C)cc(N3Cc4cnn(C)c4C3)n2)c1` [Example 275-3]: the 50% inhibitory concentration (IC50) was below 5 µM.

`CNCC(O)COc1cccc(-c2nc(-c3cn(C)c4ncncc34)cc(N(C)C3CCOCC3)n2)c1` (stereo not shown) [Example 485-1a] displayed an IC50 below 5 µM.

`CCOC(=O)N1CC2(CCCN(c3nc(-c4cccc(OCC(O)CNC)c4)nc(-c4c(C)noc4C)c3C)C2)C1` (stereo not shown) [Example 295-1a] had a half-inhibitory concentration (IC50) below 5 µM.

`CC[C@@H]1CN(c2nc(-c3cccc(OCC(O)CNC)c3)nc(-c3c(C)noc3C)c2C)CCN1S(=O)(=O)CC` (stereo partly shown) [Example 152-1a] had a concentration for half-maximal inhibition (IC50) below 5 µM.

The molecule `CCS(=O)(=O)N1CC2(CN(c3nc(-c4cccc(OCC(O)CNC)c4)nc(-c4c(C)noc4C)c3C)C2)C1` (stereo not shown) [Example 16-3] had a half-inhibitory concentration (IC50) below 5 µM.

`CNCC(O)COc1cccc(-c2nc(NC3CCOCC3)c(C)c(N3CCN(C(C)C)CC3)n2)c1` (stereo not shown) [Example 644-1a]: the IC50 is at least 20 µM.

In the case of `CNC[C@@H](O)COc1ccc(Cl)c(-c2nc(N[C@@H]3CCN(C)C[C@@H]3F)c(C)c(-c3c(C)noc3C)n2)c1` [Example 194-3], the 50% inhibitory concentration (IC50) is below 5 µM.

Regarding `CNC[C@@H](O)COc1ccc(Cl)c(-c2nc(N[C@@H]3C[C@@H](C)O[C@@H](C)C3)c(Cl)c(-c3c(C)noc3C)n2)c1` [Example 183-3], the IC50 was below 5 µM.

Take `CNCC(O)COc1cccc(-c2nc(NC3CCN(C(=O)C4CC4)C3)c(C)c(-c3c(C)noc3C)n2)c1` (stereo not shown) [Example 243-1a]: the IC50 was below 5 µM.

Take `CNCC(O)COc1cccc(-c2nc(Nc3cncnc3)cc(-c3c(C)noc3C)n2)c1` (stereo not shown) [Example 21-1a]: the 50% inhibitory concentration (IC50) is 5 to 10 µM.

As to `CNC[C@@H](O)COc1ccc(Cl)c(-c2nc(N[C@H]3C[C@@](C)(OC)C3)c(C)c(-c3c(C)noc3C)n2)c1` [Example 110-3], the IC50 was below 5 µM.

As for `CNCC(O)COc1cccc(-c2nc(NC3CCOC3)c(C)c(N3CC4CC(C3)N4)n2)c1` (stereo not shown) [Example 452-1a], the IC50 lay in the range of 10 to 20 µM.

In turn, `CNCC(O)COc1cccc(-c2nc(NCC3CCOCC3)c(C)c(-c3c(C)noc3C)n2)c1` (stereo not shown) [Example 88-1a] yielded an IC50 below 5 µM.

Molecule `CNC[C@@H](O)COc1ccc(F)c(-c2nc(N[C@H]3CCN(C4CC4)C[C@H]3F)c(C)c(-c3c(C)noc3C)n2)c1` [Example 98-3] returned an IC50 below 5 µM.

The molecule `CNCC(O)COc1cccc(-c2nc(-c3sc(C)nc3C)cc(N(C)C3CCOCC3)n2)c1` (stereo not shown) [Example 569-1a] had a half-inhibitory concentration (IC50) of 10 to 20 µM.

Take `CNCC(O)COc1cccc(-c2nc(C3=CCCC3)cc(N(C)C3CCOCC3)n2)c1` (stereo not shown) [Example 621-1a]: the IC50 fell in the range of 10 to 20 µM.

With `CNCC(O)COc1cccc(-c2nc(-c3c(C)noc3C)c(C)c(N3CCO[C@H](CN(C)C)C3)n2)c1` (stereo partly shown) [Example 151-1a], the IC50 is below 5 µM.
